Usually melting point stands for the temperature, or range, at which the solid turns liquid. `CNC(=O)N(OC(=O)Oc1ccccc1)c1ccc(Cl)c(Cl)c1` showed a melting point of 93 °C.

In turn, `O=C(O)C1c2ccccc2CCc2cc(Br)ccc21` (stereo unspecified) showed a melting point of 129 to 131 °C.

For the compound `CCCCOCCOc1ccc(-c2cnc3c(c2)C=C(C(=O)O)CCCN3CCC)cc1`, the melting point fell in the range of 123 to 125 °C.

In turn, `CCOC(=O)c1ccc(OCCCCl)cc1` had a melting point of 24 to 25 °C.

In the case of `CC[C@@H](O)CC(=O)N[C@H]1CC[C@H](CCN2CCN(c3nccc4c3OCC4)CC2)CC1`, the melting point was 146 °C.

For the compound `Cc1nn(-c2c(Cl)cc(C(F)(F)F)cc2Cl)nc1-c1nc(C#N)c(C#N)[nH]1`, the melting point lay in the range of 228 to 229 °C.

Turning to `Cc1nn(-c2c(Cl)cc(C(F)(F)F)cc2Cl)nc1CN(C)C`, the melting point lay within 67 to 68 °C.

`CCCOc1cnc(CCl)cc1O`: the melting point lay within 165 to 167 °C.

On to `CCc1cc(Cl)cc(S(N)(=O)=O)c1N`, for which the melting point fell in the range of 134 to 135 °C.

In turn, `Nc1ccc(CNc2n[nH]c3ncnc(Nc4cccc(Cl)c4)c23)cc1` had a melting point of 170 to 171 °C.

As to `COC(=O)c1cc(/C=C/C(=O)O)ccc1Cl`, the melting point was found to be 194 °C.

The compound `COc1cc2c(cc1C)C(CCCN1CCN(C)CC1)(c1ccccc1F)C(=O)N2S(=O)(=O)c1ccc(OC(C)C)cc1` (stereo unspecified) came in with a melting point of 70 °C.

`O=C1C(Br)=C(Br)C(=O)c2ncccc21` yielded a melting point of 243 to 245 °C.

Compound `CC(=O)Nc1ncc(C=O)s1` gave a melting point of 235 to 236 °C.

For `COc1ccc(C(=O)Nc2cccc(Cl)c2)cc1NC(=S)Nc1ccc(F)cc1`, the melting point lay within 184 to 185 °C.

`COC(=O)C1=C(C)NC2=C(C(=O)NCC2)C1c1ccc(F)c(Br)c1` (stereo unspecified) registered a melting point of 150 to 152 °C.

For `CN1[C@H]2CC[C@@H]1[C@H](C(=O)Oc1ccc(Cl)cc1)[C@@H](c1ccc(F)cc1)C2`, the melting point fell in the range of 64 to 66 °C.

`C[C@H](CSC(=O)c1ccccc1)C(=O)N1C(=O)N(C)C[C@H]1C(=O)OC(C)(C)C`: the melting point is 128 °C.

`COc1cn(C(C)C)c(=O)o1` had a melting point of 108 to 110 °C.

On to `COCc1ccc2c(c1)ncn2-c1cccc(-c2ccccc2)c1`, for which the melting point lay in the range of 70 to 72 °C.

Turning to `Nc1ccc(C(=O)c2cc(F)ccc2F)cc1`, the melting point fell in the range of 101 to 103 °C.

In turn, `COc1ccc2c(c1)S(=O)(=O)c1cc(OC(C)=O)c(OC)cc1N2` had a melting point of 265 to 268 °C.

In turn, `C=CCc1cc2c(c(CC=C)c1OC1CCCCO1)CCC(=O)N2` (stereo unspecified) came in with a melting point of 119 to 120 °C.

For the compound `CC(C)n1nc(-c2sc(NC(=O)C3CC3)nc2-c2ccccc2)ccc1=O`, the melting point fell in the range of 226 to 227 °C.

In turn, `Cc1ccc(Nc2nc(-c3ccc(-c4ccccn4)s3)cs2)nc1` registered a melting point of 197 to 199 °C.

Consider `CC1=C(C(=O)OCCN(Cc2ccccc2)Cc2ccccc2)C(c2ccccc2C(F)(F)F)c2c(ccnc2OC(C)C)N1` (stereo unspecified), for which the melting point is 132 to 133 °C.

`N#Cc1cc(-c2ccncc2)sc1-c1ccncc1` registered a melting point of 205 to 207 °C.

In turn, `CN1C(=O)C(F)N=C(c2ccccc2F)c2cc(Br)ccc21` (stereo unspecified) showed a melting point of 127 to 130 °C.

On to `O=C(Nc1ccc(Cl)c(Cl)c1)OCCCC(=O)c1ccccc1`, for which the melting point was 141 to 143 °C.

In turn, `CCCc1nc(OC)c(NC(=O)N2CCN(c3cc(OC)cc(OC)c3)CC2)cc1C` registered a melting point of 121 to 122 °C.

For the compound `COC(=O)CC1CC(c2ccc(C(=N)NC(=O)OC(C)(C)C)cn2)=NO1` (stereo unspecified), the melting point worked out at 143 °C.

Turning to `N#CNC(=S)Nc1ccc([N+](=O)[O-])cc1`, the melting point is > 250 °C.

In turn, `CCCOC(=O)Nc1ccc(OCC2CC2(Cl)Cl)c(Cl)c1` (stereo unspecified) registered a melting point of 57 to 59 °C.

Consider `CNC(c1ccc(OC)cc1)c1csc(S(N)(=O)=O)c1` (stereo unspecified), for which the melting point lay within 155 to 156 °C.

Regarding `O=c1c2ccccc2ncn1C1CCN(CCC(CC(F)(F)F)c2ccccc2)CC1` (stereo unspecified), the melting point lay within 128 to 129 °C.

Regarding `N#Cc1c(N)nc2ccccc2c1NCc1ccccc1`, the melting point is 206 °C.

`CCOC(=O)C1CN(C(C)=O)CCC1=O` (stereo unspecified) showed a melting point of 53 to 55 °C.

On to `Cc1oncc1C(=O)N1CCSCC1`, for which the melting point lay in the range of 64.5 to 65 °C.

For `COc1cc(CN)nc(SC)n1`, the melting point lay in the range of 35 to 38 °C.

The compound `COc1cc(-c2ccc3cc4c(cc3c2)C(C)(C)CCC4(C)C)ccc1C(=O)O` yielded a melting point of 177 to 178 °C.

For the compound `O=P(c1ccccc1)(c1ccccc1)C(O)C(O)P(=O)(c1ccccc1)c1ccccc1` (stereo unspecified), the melting point lay in the range of 211 to 214 °C.

On to `O=C1C2=NCCCN2c2ccc(Br)cc21`, for which the melting point was in the range of 166 to 168 °C.

As for `CC(C)C1(c2ccccc2)OC(C(=O)OCc2cccnc2)=CC1=O` (stereo unspecified), the melting point was in the range of 109 to 110 °C.

Turning to `CNC(=O)C1CCN(Cc2cnc3cc(NC(=O)c4ccc(-c5ccc(F)cc5)cc4)c(C)cc3c2)CC1`, the melting point is 257 °C.

`Nc1c2c(nc3cccc(Cl)c13)CCCC2` yielded a melting point of 144 to 145 °C.

For the compound `COC(=O)COc1ccc(CC(C)NCC(O)c2ccc(O)c(CO)c2)cc1` (stereo unspecified), the melting point is 60 to 63 °C.

Regarding `CCCCNc1cc(CNc2ccccc2)cc(S(N)(=O)=O)c1Oc1ccccc1`, the melting point is 142 to 143 °C.

`CCS(=O)(=O)c1cn(C)c2ccccc2c1=O` displayed a melting point of 164 to 166 °C.

`CCc1nc(/C=C/c2cn(-c3ccccc3C)nc2O)cs1`: the melting point lay within 174 to 176 °C.

Regarding `CN1CCN=C1C(C#N)=NO`, the melting point worked out at 216 °C.

For the compound `CC(C)CCCC(C)C1CC(=O)C2=C3C(F)CC4CC(OC(=O)c5ccccc5)CCC4(C)C3CCC21C` (stereo unspecified), the melting point lay within 144 to 145 °C.

As to `Cc1cc(Cl)ccc1Cn1nc(C=O)c2ccccc21`, the melting point was in the range of 107 to 109 °C.

Turning to `O[C@@H]1CN=C(c2ccc3ccccc3c2)O[C@H]1c1ccccc1` (racemic), the melting point was determined as 172 °C.

Regarding `Nc1nc2cccnc2c2c1nc(CF)n2CC1(O)CCOC1` (stereo unspecified), the melting point lay in the range of 209 to 210 °C.

As to `CCOC(=O)C(=O)c1ccc(SCC2CC2)[nH]1`, the melting point was 46 °C.

Compound `O=C1Cc2c(OCCNCc3ccccc3)ccc(Cl)c2N1` showed a melting point of 161 to 163 °C.

As to `CCCCCc1ccc(C(O)(c2c(C)cc(C)c(C)c2OC)C(C)C)cc1` (stereo unspecified), the melting point was 55 °C.

`COc1ccc(C2=NN(Cc3ccc([N+](=O)[O-])cc3)C(=O)SC2)cc1OC` had a melting point of 155 °C.

In the case of `COc1cccc(CC(=O)Nc2cc(Cl)c(Cl)cc2[N+](=O)[O-])c1`, the melting point lay within 122 to 124 °C.

With `COC(=O)CC(CNC(C)=O)c1cccc2ccc(OC)cc12` (stereo unspecified), the melting point was 94 to 95 °C.

Compound `COC(C)=C(Cl)C(=O)Nc1ccccc1` displayed a melting point of 100 °C.

As for `COc1c(N2CC(C)C(C)(N)C2)c(F)cc2c(=O)c(C(=O)O)cn(C3CC3F)c12` (stereo unspecified), the melting point lay within 195 to 196 °C.

`COc1cc2cc([N+](=O)[O-])ccc2c([N+](=O)[O-])c1O` gave a melting point of 239 to 242 °C.

`Nc1ccc(-c2ccc(C(=O)NC3CN4CCC3CC4)o2)cc1` (stereo unspecified) displayed a melting point of 103 to 113 °C.

As to `COc1cc(Nc2nccc(-c3ccc(N4CCN[C@@H](C)C4)nc3)n2)cc(OC)c1OC`, the melting point is 139 to 140 °C.

Compound `Clc1ccc(C2=CCN(CCCCn3cncn3)CC2)cc1` came in with a melting point of 101 to 103 °C.

Source of the values: a melting point compilation (Tetko et al.; mined from patent text by program, amines drawn as free bases though some values may be those of a salt).
